How the values were obtained:
[1] = test system: microtubules (α-tubulin) / GFP-tagged NuSAP; assay: Immunofluorescence localization of GFP-tagged NuSAP in transfected COS-1 cells; conditions: for distribution of NuSAP in the nucleoli during interphase: COS-1 cells in interphase; for distribution of NuSAP and α-tubulin in mitotic cells: mitotic COS-1 cells, nocodazole 10 μM for 1 hour, taxol 5 μM for 1 hour
[2] = test system: nusap gene expression; assay: Northern analysis of nusap gene expression in MC3T3-E1 cells; type: cell-based, mouse
Description: FIG. 2 represents a Northern blot analysis showing nusap gene expression in sub-confluent cultures of MC3T3-E1 cells after treatment with vehicle or 1,25(OH)2D3 (10^−8 M) for 24 hours. The size (kb) of the three transcripts is indicated.
(§1) Northern blot analysis of nusap expression in hydroxyurea treated (1 mM) MC3T3-E1 cells. Cells were harvested at the indicated time points (minutes) after treatment. The different cell cycle phases were assigned based on the RNA levels of histone H4, a S-phase marker. The blots were hybridized with the following cDNA probes: human histone H4, pFO002; and a 0.8 kb NuSAP BglII/AspI restriction fragment. The 18S cDNA probe was used as a control to assess equal loading.
(§2) Growth arrest of MC3T3-E1 cells by serum starvation was accomplished by changing complete medium (10% FCS) to medium containing 0.1% FCS in subconfluent cultures. The quiescent cells were released from growth arrest by adding complete medium (10% FCS), whereafter cells were harvested at the indicated time points.
(§3) Total cellular RNA was extracted from cell cultures using TriZol LS. Foetal mice and soft tissues from adult mice (C57BL/6; 8 wk old) were directly homogenized in TriZol (GIBCO BRL), while femurs and tibias were ground to a fine powder prior to homogenization, followed by total cellular RNA extraction. […]

[3] = test system: mouse osteoblastic MC3T3-E1 cells; assay: [3H]-thymidine incorporation, proliferation of MC3T3-E1 cells; type: cell-based; conditions: varying doses, 24 and 48 h, versus vehicle
Description: (a) The proliferation of MC3T3-E1 cells was analyzed after treatment for 24 and 48 h with varying doses of 1,25(OH)2D3 by monitoring [^3H]-thymidine incorporation. Data represent mean±SD of six replicates of a representative experiment. Values of vehicle (ethanol) treated cells were taken as 100%. (*P<0.001; versus vehicle, t test) All culture reagents, unless otherwise mentioned, were obtained from GIBCO BRL (Life Technologies, Grand Island, N.Y.). Murine osteoblast-like MC3T3-E1 cells (Sudo et al. (1983). J. Cell Biol. 96:191-198) were purchased from Riken Cell Bank (H. Kodama, Japan), and maintained in αMEM supplemented with 10% heat-inactivated FCS and penicillin-streptomycin (100 U/ml and […], respectively). Sub-confluent MC3T3-E1 cell cultures are defined to be in the proliferation state, while confluent and mineralising cells have entered the differentiation stage. COS-1 and NIH3T3 cells (American Type Culture Collection, Manassas, Va.) were cultured respectively in Dulbecco's modified eagle medium (hereinafter DME) and DME-F12, plus 10% heat-inactivated FCS. For NIH3T3 cells, the medium was supplemented with glutamax (2 mM) and glucose (4.5 g/l). Cultures were grown at 37° C. in a humidified atmosphere containing 5% CO2 in air. […] Significant effects were already observed after 24 hours and this inhibition became more pronounced with increasing time. […]

[4] = test system: DNA synthesis (BrdUrd incorporation); assay: BrdUrd immunostaining in transfected COS-1 cells; type: cell-based; conditions: 20 μg/ml for several hours
Description: […] […] C is the merger of A and B. In some cells, BrdUrd incorporation is distinctly aggregated (E), and these sites overlap with NuSAP-GFP (D) and F (which is the merger of D and E).
Alternatively, cells were fixed and permeabilized in 0.4% glutaraldehyde/0.5% Triton X100/PBS for 15 minutes at room temperature. After incubation in 0.5 mg NaBH4/ml PBS (10 minutes), and blocking in 5% BSA/PBS (10 minutes), cells were incubated with primary antibodies for 1 h. Cells were washed and after incubation with 50% normal serum (Dako) (10 minutes), cells were incubated with secondary antibodies conjugated to Alexa-488 or -546 dye (Molecular Probes) (1 hour) and finally mounted using Dako mounting medium. Antibodies and normal serum were diluted in 0.5% Tween20/PBS. Analysis was done on a Nikon inverted microscope Diaphot 300 (Plan Apo 60/1.40 oil) connected to a Bio-Rad MRC1024 confocal microscope and images were captured by LaserSharp (version 3.2) and processed using Adobe Photoshop 5.5 (Adobe Systems Inc., San Jose Calif.). The images showing a-tubulin localization were taken using a Leitz DM microscope and were recorded using a cooled charge-coupled device camera (Photometrics Inc., Tucson, Ariz.) and IP-Lab software. […]

[5] = test system: histone H4 gene expression; assay: Northern analysis of histone H4 RNA levels in MC3T3-E1 cells; type: cell-based, mouse; conditions: 1 mM, within 45 minutes of treatment
Description: as §1, §2, §3

COC(=O)Nc1nc2ccc(C(=O)c3cccs3)cc2[nH]1 [nocodazole]
distribution of NuSAP in the nucleoli during interphase [1]: Neither nocodazole nor taxol treatment affected | distribution of NuSAP and α-tubulin in mitotic cells [1]: NuSAP and α-tubulin redistributed throughout the cell

C=C1/C(=C\C=C2/CCC[C@]3(C)[C@@H]([C@H](C)CCCC(C)(C)O)CC[C@@H]23)C[C@@H](O)C[C@@H]1O [1α,25(OH)2D3, 1α,25-dihydroxyvitamin D3]
nusap gene expression (Northern analysis) ([2]; sub-confluent MC3T3-E1 cells, 10^-8 M for 24 hours versus vehicle): inhibition of nusap gene expression | proliferation measured by [3H]-thymidine incorporation [3]: inhibited the proliferation of these cells

C[C@@]1(CO)[C@H](O)CC[C@@]2(C)[C@H]1CC[C@H]1C[C@@H]3C[C@@]12CC[C@]3(O)CO [aphidicolin]
immunostaining for BrdUrd [4]: loss of immunostaining for BrdUrd

CC(=O)O[C@H]1C(=O)[C@@]2(C)[C@H]([C@H](OC(=O)c3ccccc3)[C@]3(O)C[C@H](OC(=O)[C@H](O)[C@@H](NC(=O)c4ccccc4)c4ccccc4)C(C)=C1C3(C)C)[C@]1(OC(C)=O)CO[C@@H]1C[C@@H]2O [taxol]
distribution of NuSAP in the nucleoli during interphase [1]: Neither nocodazole nor taxol treatment affected | distribution of NuSAP and α-tubulin in mitotic cells [1]: resulted in NuSAPs translocation to these structures

NC(=O)NO [hydroxyurea]
nusap gene expression (RNA level) ([2]; MC3T3-E1 cells, 1 mM, within 45 minutes of treatment): markedly down-regulated | histone H4 RNA levels [5]: undetectable

— patent US20030157072A1, “Nusap, a novel gene encoding a tissue-specific nuclear protein, useful as a diagnostic tool and therapeutic agent” (priority 2003, published 2003)
